Test results published in patent publication US11447825B2, “In-vitro methods for the detection of autoimmune diseases or conditions” (Universitätsmedizin der Johannes Gutenberg-Universität Mainz, priority 2015, dated 2022).

Experiments:
Type in all cases: cell-based, human
[1] = tested on: T-cells cocultured with Treg; assay: Suppressor assay: T-cell proliferation with or without Treg (3H-Tdr incorporation); settings: for Treg-mediated suppression in cocultures in presence of exogenous IL-6: HC T-cells with Treg plus IL-6 plus test substance, anti-IL-6R mAb 30 ng/ml, Akt VIII inhibitor 0.1 μM, PPARA agonist 0.01 μM
Procedure: Treg-depleted PBMC (10^5 cells) were stimulated with 0.5 μg/ml anti-CD3 mAb (OKT-3) and cultured in presence or absence of different Treg ratios (Treg:T-cells 1:1 to 1:64) (Jonuleit et al., 2001; Kubach et al., 2007). T-cell proliferation was determined on day three of cultures by addition of 37 kBq/well ^3H-Tdr for additional 16 h. Some experiments were performed by supplementing cultures with neutralizing mAb against anti-IL-6R (30 ng/ml; Tocilizumab; Roacterma; Roche) or supplemented with IL-6 (100 ng/ml or 1000 IU/ml; CellGenix). PKB/c-Akt VIII inhibitor (0.1 μM; Calbiochem, Isozyme-selective, Akt1/2) was added into individual assays. Some experiments were performed by supplementing cultures with PPARA antagonists (GW6471, Tocris, 0.05 μM) or PPARA agonists (GW7646, Tocris, 0.01 μM) together with IL-6 (100 ng/ml or 1000 IU/ml; CellGenix). For flow cytometric analysis of proliferating T-cells Treg-depleted PBMC were washed in warm PBS and stained with 1 μM CFSE and afterwards cocultured with or without Treg (ratio 1:1) and stimulated with 0.5 μg/ml anti-CD3 mAb. Proliferation was assessed on day 3 after excluding dead cells. Analysis was performed on LSRII (BD Bioscience) and evaluated using DIVA software (BD Bioscience).

PKB/c-Akt = PKB/c-Akt phosphorylation in CD3+ T-cells by flow cytometry; settings: HC T-cells; for phosphorylation of PKB/c-Akt in presence of IL-6: 24 h with IL-6 plus IL-6R mAb or VIII inhibitor (0.01, 0.1 and 1 μM)
Procedure: For surface staining of PBMC or T-cells indicated antibodies were incubated for 30 min at 4° C. and washed twice with PBS. Stained cells were measured on LSRII with FACS Diva Software (BD Bioscience). To detect phosphorylated PKB/c-Akt (anti-Akt, pS473, BD Phosflow), cells were fixed at 37° C. (BD Cytofix™ Buffer); permeabilized (BD™ Phosflow Perm Buffer) washed twice with BD Pharmingen™ stain buffer and stained for the indicated antibody according to manufacturer's instructions.
A) Upper panel: CD3^+ T-cells and Treg were coculture in presence (grey) or absence (black) of IL-6 and stimulated with anti-CD3 mAb. […] One of four independent experiments is shown. Lower panel: PBMC from HC were cultured for 24 h with (grey) or without (black) IL-6, washed extensively and CD4^+ or CD8^+ T-cells were isolated. Cells were left unstimulated or were activated with plate-bound anti-CD3 and anti-CD28 mAb for four hours. Shown are expression levels of (PPARGC1A) PGC-1α mRNA in activated CD4^+ and CD8^+ T-cells (TC) normalized to resting T-cells. β-Actin used as housekeeping gene. Bars represent mean of four experiments, p-values relative to TC without IL-6. B) PKB/c-Akt phosphorylation was analyzed by flow cytometry within CD3^+ T-cells after 24 h of culture with (black) or without IL-6 (grey). C) Flow cytometric determination of PKB/c-Akt phosphorylation. […] Shown is the mean fluorescence intensity (MFI) of pPKB/c-Akt in T-cells, one representative result of five independent experiments. […] PKB/c-Akt phosphorylation was analyzed by flow cytometry within CD3^+ T-cells. […]
A) PBMC from HC were cultured for 24 h with media (black), PPARα antagonist (blue) or PPARα agonist (green), washed extensively and expression level of PGC-1α mRNA in activated T-cells was detected by qRT-PCR. β-Actin used as housekeeping gene. […] B) PKB/c-Akt phosphorylation was analysed by flow cytometry within CD3^+ T-cells after 24 h of culture with media (black), PPARα agonist (green) or PPARα antagonist (blue). […]

T-cells = assay: Toxicity of PPARα modifiers in cell culture; settings: incubation with PPARα antagonist (Supplemental FIG. 4)
Procedure: Human cells were cultured in X-VIVO-15 (Lonza, Belgium). Flow cytometric analysis was performed using the following antibodies: anti-human CD3 (SK7), anti-human CD3 (UCHT1), anti-human CD4 (RPA-T4), anti-human CD8 (SK1), anti-human CD14 (M5E2), anti-human CD19 (HIB19), anti-human CD25 (M-A251), all from BD Pharmingen, anti-human CD8 (BW 135/80, Miltenyi Biotec), Fluorokine® biotinylated human Interleukin-6 (R&D systems). Cell viability during flow cytometric analysis was determined using 7-AAD and eFluor506 (eBioscience). For blockade experiments, cultures were supplemented with neutralizing antibody against anti-IL-6R (Tocilizumab), PKB/c-Akt VIII inhibitor (Calbiochem), PPARA antagonists (GW6471, Tocris, 0.05 μM) or PPARA agonists (GW7646, Tocris, 0.01 μM) together with IL-6 (100 ng/ml or 1000 IU/ml; CellGenix).

PGC-1α = PGC-1α (PPARGC1A) mRNA expression in activated T-cells by qRT-PCR; settings: HC PBMC 24 h with IL-6, then anti-CD3/anti-CD28 for four hours; normalized to resting T-cells
Procedure: RNA was extracted from 2×10^6 cells using Rneasy Kit (Qiagen) according to manufacturer's instructions. cDNA was generated by reverse transcription with Sensiscript RT Kit (Qiagen) and amplified by quantitative RT-PCR (qRT-PCR, 7300 Real Time PCR System (Applied Biosystem) and the QuantiFAST PCR Kit (Qiagen). Relative IL-6 mRNA (QuantiTect Primer, Qiagen) expression levels were normalized to EF1-α or β-Actin. Relative PPARGC1α, IRF8, FGF19, HNF4A, Hdac, RORA mRNA was analyzed with QuantiTect Primer Assay (Qiagen) according to manufacturer's instructions and expression levels were normalized to β-ACT.
A) Upper panel: CD3^+ T-cells and Treg were coculture in presence (grey) or absence (black) of IL-6 and stimulated with anti-CD3 mAb. […] One of four independent experiments is shown. […] B) PKB/c-Akt phosphorylation was analyzed by flow cytometry within CD3^+ T-cells after 24 h of culture with (black) or without IL-6 (grey). […] Shown is the mean fluorescence intensity (MFI) of pPKB/c-Akt in T-cells, one representative result of five independent experiments. […] PKB/c-Akt phosphorylation was analyzed by flow cytometry within CD3^+ T-cells. […]
A) PBMC from HC were cultured for 24 h with media (black), PPARα antagonist (blue) or PPARα agonist (green), washed extensively and expression level of PGC-1α mRNA in activated T-cells was detected by qRT-PCR. β-Actin used as housekeeping gene. […]

O=c1[nH]c2ccccc2n1C1CCN(Cc2ccc(-c3nc4cc5[nH]cnc5cc4nc3-c3ccccc3)cc2)CC1 [c-Akt inhibitor VIII]
Treg-mediated suppression in cocultures in presence of exogenous IL-6 [1]: restored IL-6-induced Treg resistance | phosphorylation of PKB/c-Akt in presence of IL-6 (PKB/c-Akt): inhibited phosphorylation of PKB/c-Akt

CCC(=O)NC[C@H](Cc1ccc(OCCc2nc(-c3ccccc3)oc2C)cc1)N/C(C)=C\C(=O)c1ccc(C(F)(F)F)cc1 [PPARα antagonist]
Treg resistance in cocultures without IL-6 ([1]; T-cells and Treg, anti-CD3 mAb, PPARA antagonist 0.05 μM alone): Treg resistance could be induced | T-cell proliferation in absence of Treg ([1]; no Treg, agonist 0.01 μM, antagonist 0.05 μM): did not influence the T-cell proliferation significantly | toxicity (T-cells): without inducing toxicity

IL-6: exogenous cytokine IL-6 (100 ng/ml or 1000 IU/ml; CellGenix)
control of T-cells by Treg in suppressor cocultures ([1]; Treg-sensitive T-cells from HC with Treg, anti-CD3 mAb, IL-6 supplemented (100 ng/ml or 1000 IU/ml), day three): prevented efficient control of T-cells by Treg | PGC-1α expression in activated CD4+ T-cells (PGC-1α): down regulated PGC-1α expression | PGC-1α expression in activated CD8+ T-cells (PGC-1α): prevented the upregulation of PGC-1α | phosphorylation of PKB/c-Akt in T-cells (PKB/c-Akt; 24 h culture with IL-6): enhanced phosphorylation of PKB/c-Akt

anti-IL-6R mAb: neutralizing mAb against anti-IL-6R (Tocilizumab; Roacterma; Roche)
Treg-mediated suppression in cocultures in presence of exogenous IL-6 [1]: restored IL-6-induced Treg resistance | phosphorylation of PKB/c-Akt in presence of IL-6 (PKB/c-Akt): inhibited phosphorylation of PKB/c-Akt
